CCc1cc(CO)c(OC)nc1C gave a melting point of 53 to 55 °C.
For O=C(O)CCc1oc(Sc2nccn2-c2ccccc2)nc1-c1ccc(Cl)cc1, the melting point was 185 to 187 °C.
Work on CCOC(=O)N1CCOC(CC23CC(c4ccccc42)c2ccccc23)C1 (centres undefined) yielded a melting point of 143 to 144 °C.
Fc1ccc(Nc2ncnc3cc(-c4ccco4)ccc23)cc1Cl gave a melting point greater than 250 °C.
Cc1cc(-n2ccnc2)c2cccc(OCc3c(Cl)ccc(S(=O)(=O)N4CCC[C@H]4C(=O)NCC4CCN(CCOCCO)CC4)c3Cl)c2n1 gave a melting point of 96 °C.
Molecule CS(=O)(=O)OCCNC(=O)C(O)C(Oc1ccccc1[N+](=O)[O-])c1ccccc1 (centres undefined) has a melting point of 122 to 125 °C.
With CCCCn1c(=O)c2[nH]c(N3CCCCC3)nc2n(CCCC)c1=O the melting point was 221 °C.
Cc1cccc(C2CCCCS2=O)n1 (centres undefined) showed a melting point of 100 °C.
For N#CC(Nc1ccc2ccccc2c1)c1c(Cl)cccc1Cl (centres undefined), the melting point was 94.8 °C.
In the case of CC(C)(Cl)c1ccc(-c2ccc(C(C)(C)Cl)cc2)cc1, the melting point is reported as 96 to 98 °C.
Molecule FC(F)(F)c1cccc(-c2cnn(-c3cccnc3)c2)n1 has a melting point of 130 to 131 °C.
CC(=O)c1ccc2c(c1)C1(c3cc(C(C)=O)ccc3-2)c2cc(C(C)=O)ccc2-c2ccc(C(C)=O)cc21 gave a melting point greater than 300 °C.
Molecule COc1ccc(CNc2n[nH]cc2C(N)=O)cc1OC1CCCC1 has a melting point of 128 to 130 °C.
C(C#CSCc1ccccc1)#CSCc1ccccc1 gave a melting point of 38 to 39 °C.
CC(C)CC(=O)Nc1c(C(=O)c2cccc(Cl)c2)[nH]c2cc(Cl)ccc12 gave a melting point of 185 to 186 °C.
With O=C(c1ccc(F)c(Cl)c1)N1CCC(F)(CNCc2ccc(CF)cn2)CC1 the melting point was 157 to 159 °C.
Work on CCOC(=O)c1snc(OCC)c1Br yielded a melting point of 40 to 43 °C.
For O=C(O)CCc1cn(Cc2ccc(C(=O)NCc3ccc(C(F)(F)F)cc3)cc2)nc1-c1ccccc1, the melting point was 151 to 152 °C.
In the case of COc1cc(OCc2ccccc2)ccc1/C=C/c1cc(/C=C/c2ccc3cc[nH]c3c2)[nH]n1, the melting point is reported as 86 to 91 °C.
Molecule CSc1ccc(C2C(=O)c3ccccc3C2=O)cc1 has a melting point of 153 to 155 °C.
With Nc1nc2c(ncn2OCCCCP(=O)(O)O)c(=O)[nH]1 the melting point was 208 °C.
Work on CNC(=O)N1CCSC1c1ccccc1OCCN1CCN(c2ccccc2)CC1 (centres undefined) yielded a melting point of 133 to 135 °C.
Work on CCCCc1nc2ccc(C(C)O)cc2c(=O)n1Cc1ccc(-c2ccccc2-c2nnn[nH]2)cc1 (centres undefined) yielded a melting point of 146 to 147 °C.
For C[C@H]1C[C@@](O)(c2cccc(S(=O)(=O)c3cc4c(cc3F)N(C)C(=O)CC4)c2)CCO1, the melting point was 135 to 138 °C.
In the case of Cc1cnc(CCCC#N)c([N+](=O)[O-])c1, the melting point is reported as 53 to 55 °C.
Molecule O=C1c2cccc(Cl)c2C(=O)N1CCN1CCC(c2noc3cc(F)ccc23)CC1 has a melting point of 170 to 171 °C.
CC(C)c1nc2c(N)nc3ccccc3c2s1 showed a melting point of 163 to 165 °C.
Molecule C=CCOc1ccccc1-c1ccc(C#N)cc1 has a melting point of 68 to 69 °C.
With Cn1ncnc1COc1nn2c(-c3c(F)cccc3F)nncc2c1-c1ccccc1F the melting point was 163 °C.
O=C(O)CCCCN1C(=O)c2ccc(C(=O)O)cc2C1=O showed a melting point of 223 °C.
With Cc1c(-c2ccccc2)nc2ccc(NC(=O)c3cc4cc(F)ccc4n3Cc3cccc(F)c3)cn12 the melting point was 258 to 259 °C.
With COc1ccc(CNc2nc(Cl)ncc2C(=O)c2cc(OC)c(OC)c(OC)c2)cc1Cl the melting point was 165 °C.
Cc1ccc(-c2c(C(=O)NCc3ccccc3)oc(=O)c3ncccc23)cc1 showed a melting point of 208 to 209 °C.
O=C1Nc2cccnc2N(C(=O)CCN2CCN(Cc3ccccc3)CC2)c2ccccc21 gave a melting point of 205 to 207 °C.
CN1CCC2(CC1)NCc1cc(C(C)(C)C)cc(I)c1O2 showed a melting point of 155 to 156 °C.
Molecule Nc1nc(=O)n(-c2ccsc2)cc1F has a melting point of 228 to 229 °C.
COc1cccc(N(CCN2CCC(C(=O)c3ccc(F)cc3)CC2)C(=O)c2ccc(NC(N)=O)cc2)c1 showed a melting point of 123 to 128 °C.
Work on COc1ccc(SC2=C(C(=O)NO)CCC2=CCCc2ccccc2)cc1OC yielded a melting point of 44 to 46 °C.
Molecule COc1ccc(NC(=O)C23CC4CC(CC(C4)C2)C3)cc1OC has a melting point of 224 to 226 °C.
Molecule CN1CCN(c2ccc(Cl)c(C3(C)C(=O)Nc4ccc(Cl)cc43)c2)CC1 (centres undefined) has a melting point of 155 °C.
For CN(Cc1ccccc1)C1CCN(c2ccc(N)cc2)CC1, the melting point was 138 °C.
For COc1ccc(Cl)nc1C(N)=O, the melting point was 223 to 224 °C.
Molecule COc1cccc(C=C2NC(=O)NC2=O)c1 has a melting point of 229 to 231 °C.
Molecule Cc1nc(OC[C@@H]2COC(C)(C)O2)c(C#N)c(N2CCc3ccccc3CC2)n1 has a melting point of 110 to 112 °C.
In the case of Cn1nc(-c2cccc(N3Cc4cc(C(C)(C)C)ccc4C3=O)c2CO)cc(Nc2ccn(C3CNC3)n2)c1=O, the melting point is reported as 202 to 204 °C.
Molecule CC(C)C(=O)NC1c2cc3nonc3cc2OC(C)(C)C1O (centres undefined) has a melting point of 194 to 196 °C.
With CSc1sc(C(=O)N2CCCC2)c2c1-c1oncc1C(C)(C)C2 the melting point was 114 to 116 °C.
Work on C=CC1=CC=C(OC)C(OC)([N+](=O)[O-])C1 (centres undefined) yielded a melting point of 140 to 141 °C.
CN(C)c1ccc(-c2cnn(-c3cccc(C(=O)O)c3)c2)cc1 gave a melting point of 224 to 225 °C.
With CCOC(=O)COc1cccc2c1CCc1sc(SC(c3ccccc3)c3ccccc3)nc1-2 the melting point was 124 to 126 °C.
With Cn1cc(C(=O)Nc2ccccc2-c2cccc(C#N)c2)c(C(F)(F)F)n1 the melting point was 76 to 78 °C.
Molecule Cc1ccc(C2c3c(C)c(N4CCN(c5ccc(C(F)(F)F)cc5)CC4)c(C)c(C)c3OC2(C)C)cc1 (centres undefined) has a melting point of 180 to 181 °C.
In the case of CC(=Cc1ccccc1)c1ccc2c(c1)SCC(C)(C)CS2, the melting point is reported as 45 to 48 °C.
For COC(=O)c1cc(I)c(F)c(I)c1Cl, the melting point was 155 °C.
In the case of C[C@@H](Oc1ccc(-c2ccccc2)cc1)[C@H](O)CCc1cccnc1, the melting point is reported as 98 to 99.5 °C.
In the case of CC(=O)OC(C(=O)O)(C(=O)N(C(C)=O)C(C)=O)c1ccc(Cl)c(C)c1 (centres undefined), the melting point is reported as 169 to 171 °C.
In the case of CN(C)c1cc(C(O)CS(C)(=O)=O)cc(N(C)C)c1 (centres undefined), the melting point is reported as 128 to 130 °C.
For CCOC(=O)c1ccc(-c2cccc3cncn23)cc1, the melting point was 118 to 119 °C.
In the case of CCCC[C@H]1[C@@H](O)CC[C@@]2(C)CC[C@@H]3C[C@]12OC3(C)C, the melting point is reported as 47 to 48 °C.
Work on COc1cc(-c2cccc(Cl)c2)c2cc(C(O)(c3ccc(Cl)cc3)c3nncn3C)ccc2n1 (centres undefined) yielded a melting point of 155 °C.
In the case of CCOC(=O)c1c(C(F)(F)F)nc(C(F)F)c(C(=O)OC)c1N(C)C1CC1, the melting point is reported as 37 to 40 °C.
In the case of CCOC(=O)C=N[C@@H]1c2cc(C#N)ccc2OC(C)(C)[C@H]1O (relative stereo), the melting point is reported as 98 to 100 °C.
In the case of Cc1c(C(=O)Nc2ccc(OCCN3CCOCC3)c(C#N)c2)cnn1-c1ccc(Cl)cc1, the melting point is reported as 187 to 189 °C.
With N#CNC(=NC1CCCC1)Nc1cccc(C(F)(F)F)c1 the melting point was 112 to 113 °C.
For CCn1cc(C(=O)O)c(=O)c2ccc(-n3cccc3)nc21, the melting point was 230 to 232 °C.
CC(C)OP(=O)(CC1(C(=O)O)CCCC1)OC(C)C showed a melting point of 53 to 57 °C.
In the case of Cc1csc(N)c1S(N)(=O)=O, the melting point is reported as 142 to 144 °C.
CC(=O)N[C@@H](Cc1ccc(-c2c3ccccc3cc3ccccc23)cc1)C(=O)O showed a melting point of 76 °C.
For Cc1cc2nncn2nc1-c1cccc(N)c1, the melting point was 182 to 186 °C.
In the case of CN(C)S(=O)(=O)c1cc(-n2c(=O)cc(C(F)(F)F)[nH]c2=O)ccc1Cl, the melting point is reported as 281 to 283 °C.
C[C@](O)(COc1ccc(Cl)cc1)C(=O)Nc1ccc(C#N)c(C(F)(F)F)c1 showed a melting point of 146 to 148 °C.
Work on CC(C)(C)c1cc2sccc2c(C(C)(C)C)c1O yielded a melting point of 107 °C.
With CN(C)CCOc1ccc(/C(=C(\c2ccccc2)C(F)(F)F)c2ccccc2)cc1 the melting point was 90 to 91 °C.
With O=C(N[C@@H](Cc1ccc(Cl)cc1)C(=O)N1CCC(O)CC1)c1cc2cc(Cl)ccc2[nH]1 the melting point was 227 to 229 °C.
For CN(C(=O)Cc1csc(N)n1)c1ccc(Cl)cc1, the melting point was 148 to 150 °C.
In the case of CC(=O)Cc1c(C)nc2ccccc2c1N, the melting point is reported as 130 to 133 °C.
In the case of O=C1c2cccc(NC(=S)Nc3ccccn3)c2C2CC3(CCN12)SCCS3 (centres undefined), the melting point is reported as 142 °C.
Work on CC(C)CCC(=O)Nc1c(C(O)(C(F)(F)F)C(F)(F)F)ccc2ccccc12 yielded a melting point of 62 to 63 °C.
With COC(=O)c1ccc(N)c(C(=O)OC)c1 the melting point was 127 to 130 °C.
CC(=O)N(C(C)=O)c1c(I)c(C(=O)Cl)c(I)c(N(C(C)=O)C(C)=O)c1I showed a melting point of 231 to 232 °C.
COC(=O)CN1C(=S)C(C(C)C)Sc2ccccc21 (centres undefined) showed a melting point of 99 to 100 °C.
Oc1ccc2c(-c3ccccc3O)noc2c1 showed a melting point of 164 to 166 °C.
Work on COc1ccc(S(=O)(=O)Nc2cccc(C)c2NC(=O)c2ccncc2)cc1 yielded a melting point of 213 to 217 °C.
CSC(Nc1cc(C(F)(F)F)cc(C(F)(F)F)c1)=C(C#N)S(=O)(=O)c1ccc(Cl)cc1 gave a melting point of 150 to 152 °C.
Molecule Cc1c(C)c2c(c(C)c1N)CC(C)(C(=O)N1CCc3c([nH]c4ccccc34)C1)O2 (centres undefined) has a melting point of 129 to 133 °C.
CC(=O)N(CCCC(=O)O)C(c1ccccc1)c1ccccc1 showed a melting point of 173 to 174 °C.
CC(C)(C)OC(=O)N1CCc2c(n(CCOc3ccc(F)cc3)c3ccc(Cl)c(Cl)c23)CC1 gave a melting point of 164 to 166 °C.
With COc1cc([N+](=O)[O-])c(C)cc1Br the melting point was 91 to 92 °C.
With O=C(O)CCC=C(c1ccccc1)c1ccccc1 the melting point was 80 to 81.5 °C.
CC1(O)CC=C2C3CCC4=CC(=O)CCC4C3C(c3ccc(-c4ccoc4)cc3)CC21C (centres undefined) gave a melting point of 198 to 199 °C.
Work on C[C@@H](n1cnn(-c2ccc(OCC(F)(F)F)cc2)c1=O)[C@@]1(c2ccc(F)cc2F)CO1 yielded a melting point of 118 to 119 °C.
Cc1c(OCCBr)ccc2c(=O)cc(N3CCOCC3)oc12 showed a melting point of 210 to 212 °C.
For O=C(O)CN1C(=O)C(NC(=O)Nc2ccc(Cl)cc2)N=C(c2ccccc2)c2ccccc21 (centres undefined), the melting point was 178 to 180 °C.
CC(C)Cn1c(CNC(=O)OC(C)(C)C)c(-c2ccccc2)c2cc(OC(C)(C)C(N)=O)ccc2c1=O showed a melting point of 219 to 220 °C.
CC(C)(NC(=O)C1=C(C(=O)Nc2cc(OC3CCCC3)c(Cl)cc2F)CCCC1)c1cccc(Cl)c1 gave a melting point of 222 to 226 °C.
In the case of O=C(O)c1ccnc(-c2cccc3oc(Cc4cccc(C(F)(F)F)c4)cc23)c1, the melting point is reported as 187 to 188 °C.
Molecule COc1ccc(CNC(=O)c2ccc(Cl)cc2OCC(=O)O)cc1 has a melting point of 178 to 179 °C.
Molecule CCOCc1nc2c(N)nc3c(c2n1NCCCNC(=O)NC(C)C)CCCC3 has a melting point of 185 to 187 °C.
CC(C)(C)OC(=O)Nc1ccc(Cl)nc1 gave a melting point of 126 to 127 °C.
